According to patent US20150018384A1, “TREATMENT FOR HIGH CHOLESTEROL” (FibroGen, Inc., priority 2012, published 2015):
“Also recorded” adds a separate entry of the source.

Assays:
[1] = test system: subjects with end stage renal disease (ESRD); assay: ESRD subjects switched from epoetin alfa to Compound A or continued on epoetin alfa; assay type: in vivo, human
[2] = test system: subjects with end-stage renal disease (ESRD) receiving maintenance hemodialysis; assay: Study 2: phase 2 study of compound A vs EPO in ESRD subjects on maintenance hemodialysis; assay type: in vivo, human; details: treated for 19 weeks, FIG. 2
Description: Total cholesterol and lipid panels were measured by standard procedures.
Total cholesterol was measured from all subjects in Study 1 or Study 2 as part of the chemistry panel at prespecified time points.
Frozen serum samples, collected from subjects in Study 1 or Study 2, were selected for the lipid panel analysis based on the following criteria: 1) with matched baseline (D1W1) and; 2) at least one other time point. The complete lipid panel includes: total cholesterol (TC), HDL, LDL-measured, Triglycerides and VLDL (Calculated). Ratio of HDL/LDL or LDL/HDL were analyzed.
A total of n=20 subjects were selected and assayed for the complete lipid panel as described above. Subjects on this study protocol were not required to fast nor have any diet restrictions.

[3] = test system: subjects with end stage renal disease (ESRD); assay: ESRD subjects switched from epoetin alfa to Compound A or continued on epoetin alfa; assay type: in vivo, human; details: six weeks
Description: Mean total cholesterol change for the Compound A-treated subjects (all cohorts) was a decrease of 15 mg/dL compared to an increase of 18 mg/dL for the epoetin alfa treated subjects.

[4] = test system: genes involved in cholesterol biosynthesis in DIO mice liver; assay: Microarray expression of cholesterol biosynthesis genes in liver of DIO mice; assay type: in vivo, mouse; details: 60 mg/kg three times a week, 4 weeks of dosing, relative to vehicle treated mice
Description: (§1) A number of PHI compounds were evaluated for their effect on the expression of cholesterol biosynthesis genes in mouse liver. […] Liver tissue was harvested and stored in RNALater (Life Technologies). Total RNA was isolated with Trizol (Life Technologies) and purified with RNEasy96 (Qiagen) according to the manufacturers' protocols. RNA concentration was measured by NanoDrop (Thermo), and quality was assessed by Bioanalyzer (Agilent).
(§2) Biotinylated microarray probe was prepared using the 3′IVT Express kit (Affymetrix) and hybridized to mouse 430A 2.0 arrays as recommended in the manufacturer's protocol. Arrays were stained, washed, and scanned using Affymetrix equipment and software. Three arrays were run for each treatment and time point, each representing the liver sample from one individual animal.
(§3) For microarray analysis, RNA from animals in each treatment group was pooled in pairs (n=3 pairs for 4 h vehicle, n=2 pairs for all other treatment groups, for a total of 13 arrays per compound study). This approach was used to improve the signal-to-noise ratio on microarrays. Biotinylated probe was prepared using the One-Cycle cDNA synthesis kit (Affymetrix) and hybridized to mouse 430A 2.0 arrays as recommended in the manufacturer's protocol. Arrays were stained, washed, and scanned using Affymetrix equipment and software.
(§4) Array quality was assessed with GeneChip Operating System and/or Command Console software (Affymetrix). CEL files were uploaded to GeneSpring 7.3.1 (Agilent) using GC-RMA baseline correction. Principal Components Analysis was used to identify and reject outlier arrays. Data are reported as fold-change compared to timepoint-matched vehicle controls from the same study. Values less than 1.0 indicate a reduction of RNA in the treated animal liver tissue.
Liver tissue was collected as described in Example 6 from DIO mice at the end of the study (4 weeks of dosing) described in Example 12. RNA isolation and microarray analysis were carried out as described in Example 6. The expression of 16 genes involved in cholesterol biosynthesis in mice treated with Compound B, Compound E, or Compound D, relative to that in the vehicle treated mice, is shown in Table 7.

cynomolgus monkeys = assay: Cholesterol levels after repeated oral administration in monkey toxicity studies; assay type: in vivo, cynomolgus monkey; details: 28-Day study, daily oral dosing 1, 10 and 30 mg/kg, day 28
Description: During these studies monkeys were fasted prior to each blood collection. Plasma samples were then evaluated at pre-dose and at different time-points for levels of total cholesterol.

ApoE deficient mice [5] = assay: High cholesterol mouse model, ApoE deficient mice, 2 weeks; assay type: in vivo; details: Compound 60 mg/kg three times a week for two weeks, n=10/group, FIG. 22
Source text: (§5) Ten-week-old male apoE knockout mice (Jackson Laboratories, Bar Harbor, Me.) were fed a normal chow diet (0.02% cholesterol, 13.5% fat by weight; LabDiet). […] After 2 weeks of acclimatization, whole blood was collected for baseline measurement before administration of test reagents. […] The animals were sacrificed at end of study.
ApoE deficient mice as described in Example 10 were used to test the effect of various compounds on cholesterol levels. […] A statin compound (rosuvastatin) was also tested. Blood samples were collected at the end of the study and total cholesterol blood levels were tested. A group of 10 mice was sacrificed at the beginning of the study for a baseline total cholesterol measurement. […] Typically statins show mixed results in this model and are not very effective to reduce cholesterol in mice (Bea et al. 2003 Atherosclerosis 167:187-194).

ApoE deficient mice [6] = assay: Cholesterol reduction and erythrogenesis in ApoE deficient mice, 4 weeks; assay type: in vivo, mouse; details: orally 2, 20, 60 or 100 mg/kg three times a week for 4 weeks, n=8/group
Description: as §5
Total cholesterol and hemoglobin were measured weekly.

[7] = test system: Cholesterol Biosynthesis Genes in the Mouse Liver; assay: Microarray expression of cholesterol biosynthesis genes in mouse liver; assay type: in vivo; details: 10 mg/kg oral
Description: as §1, §2
Animals were sacrificed 4 h or 8 h later. Each compound was tested in a separate animal study with separate controls. Liver tissue was harvested and stored in RNALater (Life Technologies). Total RNA was isolated with Trizol (Life Technologies) and purified with RNEasy96 (Qiagen) according to the manufacturers' protocols. RNA concentration was measured by NanoDrop (Thermo), and quality was assessed by Bioanalyzer (Agilent).
as §3, §4

[8] = baseline, Compound A 3 cohorts n=74, Epoetin alfa n=22

Molecule: Epoetin alfa [reference compound]
- LDL cholesterol change ([1]; Mean (±SD), six weeks, Compound A orally three times a week (n=74) or continued epoetin alfa (n=22)): +5 (14) mg/dL
- Mean BL LDL Cholesterol [1, 8]: 90.75 mg/dL
- Mean BL Total Cholesterol [1, 8]: 158.41 mg/dL
- mean total cholesterol over the course of treatment ([1]; both groups stratified by BL total cholesterol ≦200 or >200 mg/dL, FIG. 16): increase
- HDL-C ([1]; six weeks): did not change significantly
- Mean change in LDL-C, increase ([1]; six weeks): 5 mg/dL
- mean LDL-C over the course of treatment ([1]; subjects with the higher BL total cholesterol (n=2), FIG. 17): slight decrease
- mean LDL-C over the course of treatment ([1]; subjects with the lower BL total cholesterol (n=20)): increase
- change in total cholesterol from baseline over time [2]: No reduction of total cholesterol
- Total Cholesterol change ([3]; Mean (±SD), Compound A orally three times a week (n=74) or continued epoetin alfa (n=22)): +18 (22) mg/dL
- Mean total cholesterol change, increase [3]: 18 mg/dL

Molecule: COc1ccc(Oc2ccc3c(O)c(C(=O)NCC(=O)O)ncc3c2)cc1 [Compound D, {[4-Hydroxy-7-(4-methoxy-phenoxy)-isoquinoline-3-carbonyl]-amino}-acetic acid]
- 3-hydroxy-3-methylglutaryl-Coenzyme A reductase (Hmgcr) expression [4]: 0.47
- 3-hydroxy-3-methylglutaryl-Coenzyme A synthase 1 (Hmgcs1) expression [4]: 0.42
- 7-dehydrocholesterol reductase (Dhcr7) expression [4]: 0.76
- NAD(P) dependent steroid dehydrogenase-like (Nsdhl) expression [4]: 1.02
- acetyl-Coenzyme A acetyltransferase 2 (Acat2) expression [4]: 0.72
- cytochrome P450, family 51 (Cyp51) expression [4]: 0.55
- farnesyl diphosphate farnesyl transferase 1 (Fdft1) expression [4]: 0.44
- farnesyl diphosphate synthetase (Fdps) expression [4]: 0.92
- isopentenyl-diphosphate delta isomerase (Idi1) expression [4]: 0.67
- lanosterol synthase (Lss) expression [4]: 0.70
- mevalonate (diphospho) decarboxylase (Mvd) expression [4]: 0.43
- mevalonate kinase (Mvk) expression [4]: 0.77
- phosphomevalonate kinase (Pmvk) expression [4]: 1.14
- squalene epoxidase (Sqle) expression [4]: 0.89
- sterol-C4-methyl oxidase-like (Sc4mol) expression [4]: 0.38
- sterol-C5-desaturase (fungal ERG3, delta-5-desaturase) homolog (S. cerevisae) (Sc5d) expression [4]: 0.42
- total cholesterol levels (cynomolgus monkeys): dose-dependent decrease in cholesterol levels
- total cholesterol levels (cynomolgus monkeys; listed as compound D): dose dependent decrease in total cholesterol
- total cholesterol levels at the end of the study compared to baseline (ApoE deficient mice [5]): significantly decreased cholesterol levels
- hemoglobin compared to vehicle-treated (ApoE deficient mice [6]): did not significantly increase hemoglobin at any of the tested doses; also recorded: did not show a significant increase in hemoglobin at any of the doses tested
- total cholesterol (% change from baseline) compared to vehicle-treated (ApoE deficient mice [6]): lower total cholesterol levels; also recorded: significant percent change in total cholesterol from baseline for the 20 mg/kg, 60 mg/kg, and 100 mg/kg doses

Molecule: O=C(O)CNC(=O)c1nc(Cl)c2ccccc2c1O [Compound B, [(1-Chloro-4-hydroxy-isoquinoline-3-carbonyl)-amino]-acetic acid]
- 3-hydroxy-3-methylglutaryl-Coenzyme A reductase (Hmgcr) expression [4]: 0.20
- 3-hydroxy-3-methylglutaryl-Coenzyme A synthase 1 (Hmgcs1) expression [4]: 0.15
- 7-dehydrocholesterol reductase (Dhcr7) expression [4]: 0.43
- NAD(P) dependent steroid dehydrogenase-like (Nsdhl) expression [4]: 0.34
- acetyl-Coenzyme A acetyltransferase 2 (Acat2) expression [4]: 0.43
- cytochrome P450, family 51 (Cyp51) expression [4]: 0.18
- farnesyl diphosphate farnesyl transferase 1 (Fdft1) expression [4]: 0.30
- farnesyl diphosphate synthetase (Fdps) expression [4]: 0.26
- isopentenyl-diphosphate delta isomerase (Idi1) expression [4]: 0.23
- lanosterol synthase (Lss) expression [4]: 0.38
- mevalonate (diphospho) decarboxylase (Mvd) expression [4]: 0.20
- mevalonate kinase (Mvk) expression [4]: 0.54
- phosphomevalonate kinase (Pmvk) expression [4]: 0.48
- squalene epoxidase (Sqle) expression [4]: 0.21
- sterol-C4-methyl oxidase-like (Sc4mol) expression [4]: 0.13
- sterol-C5-desaturase (fungal ERG3, delta-5-desaturase) homolog (S. cerevisae) (Sc5d) expression [4]: 0.30
- total cholesterol levels at the end of the study compared to baseline (ApoE deficient mice [5]): trend towards lower total cholesterol

Molecule: N#Cc1nc(C(=O)NCC(=O)O)c(O)c2c(Oc3ccccc3)cccc12 [Compound E, [(1-Cyano-4-hydroxy-5-phenoxy-isoquinoline-3-carbonyl)-amino]-acetic acid]
- 3-hydroxy-3-methylglutaryl-Coenzyme A reductase (Hmgcr) expression [4]: 0.36
- 3-hydroxy-3-methylglutaryl-Coenzyme A synthase 1 (Hmgcs1) expression [4]: 0.33
- 7-dehydrocholesterol reductase (Dhcr7) expression [4]: 0.52
- NAD(P) dependent steroid dehydrogenase-like (Nsdhl) expression [4]: 0.77
- acetyl-Coenzyme A acetyltransferase 2 (Acat2) expression [4]: 0.69
- cytochrome P450, family 51 (Cyp51) expression [4]: 0.26
- farnesyl diphosphate farnesyl transferase 1 (Fdft1) expression [4]: 0.40
- farnesyl diphosphate synthetase (Fdps) expression [4]: 0.57
- isopentenyl-diphosphate delta isomerase (Idi1) expression [4]: 0.42
- lanosterol synthase (Lss) expression [4]: 0.45
- mevalonate (diphospho) decarboxylase (Mvd) expression [4]: 0.34
- mevalonate kinase (Mvk) expression [4]: 0.58
- phosphomevalonate kinase (Pmvk) expression [4]: 0.74
- squalene epoxidase (Sqle) expression [4]: 0.52
- sterol-C4-methyl oxidase-like (Sc4mol) expression [4]: 0.27
- sterol-C5-desaturase (fungal ERG3, delta-5-desaturase) homolog (S. cerevisae) (Sc5d) expression [4]: 0.34

Molecule: COc1ccc(Cn2cc(Br)c3c(O)c(C(=O)NCC(=O)O)nc(C#N)c32)cc1 [Compound K, {[3-Bromo-7-cyano-4-hydroxy-1-(4-methoxy-benzyl)-1H-pyrrolo[2,3-c]pyridine-5-carbonyl]-amino}-acetic acid]
- 3-hydroxy-3-methylglutaryl-Coenzyme A reductase (Hmgcr) RNA expression ([7]; 4 h): 0.40 fold-change
- 3-hydroxy-3-methylglutaryl-Coenzyme A synthase 1 (Hmgcs1) RNA expression ([7]; 4 h): 0.74 fold-change
- 7-dehydrocholesterol reductase (Dhcr7) RNA expression ([7]; 4 h): 1.13 fold-change
- NAD(P) dependent steroid dehydrogenase-like (Nsdhl) RNA expression ([7]; 4 h): 1.05 fold-change
- acetyl-Coenzyme A acetyltransferase 2 (Acat2) RNA expression ([7]; 4 h): 0.94 fold-change
- cytochrome P450, family 51 (Cyp51) RNA expression ([7]; 4 h): 0.81 fold-change
- farnesyl diphosphate farnesyl transferase 1 (Fdft1) RNA expression ([7]; 4 h): 0.78 fold-change
- farnesyl diphosphate synthetase (Fdps) RNA expression ([7]; 4 h): 1.01 fold-change
- isopentenyl-diphosphate delta isomerase (Idi1) RNA expression ([7]; 4 h): 0.88 fold-change
- lanosterol synthase (Lss) RNA expression ([7]; 4 h): 0.88 fold-change
- mevalonate (diphospho) decarboxylase (Mvd) RNA expression ([7]; 4 h): 0.68 fold-change
- mevalonate kinase (Mvk) RNA expression ([7]; 4 h): 0.92 fold-change
- phosphomevalonate kinase (Pmvk) RNA expression ([7]; 4 h): 0.88 fold-change
- squalene epoxidase (Sqle) RNA expression ([7]; 4 h): 1.46 fold-change
- sterol-C4-methyl oxidase-like (Sc4mol) RNA expression ([7]; 4 h): 0.65 fold-change
- sterol-C5-desaturase (fungal ERG3, delta-5-desaturase) homolog (S. cerevisae) (Sc5d) RNA expression ([7]; 4 h): 0.92 fold-change
- 3-hydroxy-3-methylglutaryl-Coenzyme A reductase (Hmgcr) RNA expression ([7]; 8 h): 0.11 fold-change
- 3-hydroxy-3-methylglutaryl-Coenzyme A synthase 1 (Hmgcs1) RNA expression ([7]; 8 h): 0.30 fold-change
- 7-dehydrocholesterol reductase (Dhcr7) RNA expression ([7]; 8 h): 0.61 fold-change
- NAD(P) dependent steroid dehydrogenase-like (Nsdhl) RNA expression ([7]; 8 h): 0.56 fold-change
- acetyl-Coenzyme A acetyltransferase 2 (Acat2) RNA expression ([7]; 8 h): 0.63 fold-change
- cytochrome P450, family 51 (Cyp51) RNA expression ([7]; 8 h): 0.32 fold-change
- farnesyl diphosphate farnesyl transferase 1 (Fdft1) RNA expression ([7]; 8 h): 0.39 fold-change
- farnesyl diphosphate synthetase (Fdps) RNA expression ([7]; 8 h): 0.37 fold-change
- isopentenyl-diphosphate delta isomerase (Idi1) RNA expression ([7]; 8 h): 0.34 fold-change
- lanosterol synthase (Lss) RNA expression ([7]; 8 h): 0.38 fold-change
- mevalonate (diphospho) decarboxylase (Mvd) RNA expression ([7]; 8 h): 0.20 fold-change
- mevalonate kinase (Mvk) RNA expression ([7]; 8 h): 0.49 fold-change
- phosphomevalonate kinase (Pmvk) RNA expression ([7]; 8 h): 0.96 fold-change
- squalene epoxidase (Sqle) RNA expression ([7]; 8 h): 0.39 fold-change
- sterol-C4-methyl oxidase-like (Sc4mol) RNA expression ([7]; 8 h): 0.21 fold-change
- sterol-C5-desaturase (fungal ERG3, delta-5-desaturase) homolog (S. cerevisae) (Sc5d) RNA expression ([7]; 8 h): 0.24 fold-change
